Reference: patent US7045309B2, “9-substituted adenine derivatives as prodrug regulators of cell and tissue function” (The Research Foundation of State University of New York, priority 2000, dated 2006)
Like-named read-outs stand apart in the source and are kept apart here.

Experiments:
[1] = biological target: rat brain adenylyl cyclase; conditions: cited from earlier work
[2] = test system: Ob1771 pre-adipocytes; assay: inhibition of forskolin-stimulated [3H]cAMP formation in cells prelabeled with [3H]adenine, Ob1771; format: cell-based; conditions: read-out: IC50, forskolin-stimulated [3H]cAMP formation, Ob1771 pre-adipocytes
Method: (§1) The nucleotide prodrugs were tested for their capacity to inhibit the forskolin-stimulated formation of [^3H]cAMP in cells that had been preloaded with [^3H]adenine. Human macrophages and two preadipocyte cell lines were tested.
(§2) (i) Preadipocytes: Preadipocytes were cultured in DMEM LG medium that was supplemented with 8% fetal bovine serum and 1% of an antibiotics mixture in 2 ml Petri dishes until they reached 90-95% confluence. Growth medium was removed and 1 ml of DMEM LG medium containing 2,8-[^3H]-adenine (5μCi) was added to each dish. Cells were incubated for 2 h at 37° C. Medium was removed and cells were incubated for 15 min at 37° C. in 1 ml of unsupplemented medium. The medium was removed and 1 ml of DMEM LG medium supplemented with 0.1 mg/ml bovine serum albumin and 0.1 mM 3-isobutyl-1-methylxanthine was added.
(§3) Ten microliters of a solution of the test substance was added to yield the appropriate concentration of inhibitor in the medium. After 15 min of incubation at 37° C. 3 μl of a 10 mM solution of forskolin in ethanol was added to the medium and the cells were further incubated for 15 min at 37° C. The medium was removed and the reaction was stopped by the addition of 1 ml of a freshly prepared solution of 0.5 mM solution of cAMP in 0.3 M perchloric acid. Dishes were then kept on ice for 30 min. To 800 μl of the resulting cell extract was then added 90 μl of 0.5 M triethanolammonium chloride butler (pH=7.5). The extract was then neutralized by addition of aqueous potassium hydroxide. [^3H]cAMP was purified from a 700 μl portion of this mixture by sequential chromatography on Dowex 50 and alumina as previously described. A portion of the purified sample was used to quantify the […] formed and the remainder was used to quantify recovery by UV spectroscopy.

[3] = test system: F442A pre-adipocytes; assay: inhibition of forskolin-stimulated [3H]cAMP formation in cells prelabeled with [3H]adenine, F442A; format: cell-based; conditions: 15 min preincubation, forskolin 15 min
Method: as §1, §2, §3

[4] = test system: rat brain adenylyl cyclase; assay: inhibition of rat brain adenylyl cyclase; format: biochemical
Method: (§4) Adenylyl cyclase activities were determined as previously described, with a reaction mixture containing 100 μM 5′ATP, 5 mM MnCl2, and 100 μM forskolin. IC50 values were determined graphically.

[5] = test system: adenylyl cyclase of Ob1771 cell membranes; assay: inhibition of adenylyl cyclase of Ob1771 cell membranes; format: biochemical; conditions: for IC50: 100 μM 5′ATP, 5 mM MnCl2, 100 μM forskolin, determined graphically
Method: as §4

[6] = test system: Human Macrophages; assay: inhibition of forskolin-stimulated [3H]cAMP formation in cells prelabeled with [3H]adenine, macrophages; format: cell-based; conditions: read-out: IC50, forskolin-stimulated [3H]cAMP formation, Human Macrophages
Method: as §1
(ii) Macrophages. Macrophages were plated on culture dishes and allowed to adhere in RPMI culture medium. Cells were labeled with 2,8-[^3H]-adenine as described above for the preadipocytes.
as §3

[7] = test system: preadipocyte cell lines; assay: differentiation of preadipocyte cell lines; format: cell-based; conditions: both preadipocyte cell lines; not shown
[8] = test system: isoproterenol-stimulated, cAMP/PKA-dependent Cl− channel of cardiac ventricular myocytes; assay: block of isoproterenol-stimulated Cl- channel in cardiac ventricular myocytes; format: cell-based; conditions: not shown, read-out: IC50 for block of Cl− channel function
[9] = test system: rat atria; assay: contractility of isolated spontaneously contracting rat atria; conditions: preincubation with 10 μM for 15 min
Method: To test this, rat atria were excised from a male albino rat and attached to a strain gauge to allow contractions to be measured. The spontaneously contracting tissue was suspended in a chamber and allowed to equilibrate for 15 min in Krebs-Henseleit medium (Sigma K3753) supplemented with 25 mM […], 2.5 mM CaCl2, and 2 mM pyruvate, maintained at 37° and continuously gassed with […].

[10] = test system: adenylyl cyclase isolated from these tissues; assay: effect on adenylyl cyclase isolated from the tissues; format: biochemical; conditions: concentrations up to 300 μM
[11] = Table 1, from Johnson and coll. [27-32], read-out: IC50 for rat brain adenylyl cyclase
[12] = Table 1, read-out: IC50 to inhibit adenylyl cyclase
[13] = Ob1771, 15 min preincubation, forskolin 15 min
[14] = 100 μM 5′ATP, 5 mM MnCl2, 100 μM forskolin, determined graphically, read-out: IC50, Rat Brain Adenylyl Cyclase
[15] = 2′-triphosphate forms, read-out: IC50 for inhibition of rat brain adenylyl cyclase

## CC1OC(n2cnc3c(N)ncnc32)CC1OP(=O)(O)OP(=O)(O)OP(=O)(O)OP(=O)(O)O (centres unmarked) [2′,5′ddAdo 3′˜PPPP]
[1]; [11]
  IC50: 7.4 nM

## C[C@H]1O[C@@H](n2cnc3c(N)ncnc32)C[C@@H]1OP(=O)(O)OP(=O)(O)OP(=O)(O)O [2′,5′ddAdo 3′˜PPP]
[1]; [12]
  IC50: 40 nM

## CC1OC(n2cnc3c(N)ncnc32)CC1OP(=O)(O)OP(=O)(O)O (centres unmarked) [2′,5′ddAdo 3′˜PP]
[1]; [11]
  IC50: 100 nM

## C[C@H]1O[C@@H](n2cnc3c(N)ncnc32)C[C@@H]1OP(O)(O)=S [2′,5′ddAdo 3′˜PS]
[1]; [11]
  IC50: 600 nM

## C[C@H]1O[C@@H](n2cnc3c(N)ncnc32)C[C@@H]1OP(=O)(O)O [2′,5′ddAdo 3′˜P]
[1]; [11]
  IC50: 460 nM

## C[C@H]1O[C@@H](n2cnc3c(N)ncnc32)C[C@@H]1O [2′,5′ddAdo, 2′,5′-dideoxyadenosine]
[1]; [11]
  IC50: 2700 nM

## Nc1ncnc2c1ncn2C1CC(OP(=O)(O)OP(=O)(O)OP(=O)(O)OP(=O)(O)O)C(CO)O1 (centres unmarked) [2′dAdo 3′˜PPPP]
[1]; [11]
  IC50: 10.5 nM

## Nc1ncnc2c1ncn2C1CC(OP(=O)(O)OP(=O)(O)OP(=O)(O)O)C(CO)O1 (centres unmarked) [2′dAdo 3′˜PPP]
[1]; [11]
  IC50: 90 nM

## Nc1ncnc2c1ncn2C1CC(OP(=O)(O)OP(=O)(O)O)C(CO)O1 (centres unmarked) [2′dAdo 3′˜PP]
[1]; [11]
  IC50: 140 nM

## Nc1ncnc2c1ncn2[C@H]1C[C@H](OP(O)(O)=S)[C@@H](CO)O1 [2′dAdo 3′˜PS]
[1]; [11]
  IC50: 3100 nM

## Nc1ncnc2c1ncn2[C@H]1C[C@H](OP(=O)(O)O)[C@@H](CO)O1 [2′dAdo 3′˜P]
[1]; [11]
  IC50: 1200 nM

## Nc1ncnc2c1ncn2[C@H]1C[C@H](O)[C@@H](CO)O1 [2′dAdo]
[1]; [11]
  IC50: 15000 nM

## CC(C)(C)C(=O)SCCOP(=O)(OCCSC(=O)C(C)(C)C)O[C@H]1CCC[C@H]1n1cnc2c(N)ncnc21 [(1R,2S)-9-(cyclopentyl)-Ade-2′-P-bis(t-Bu-SATE)]
[2]; [13]
  IC50: > 30000 nM

## CC(C)(C)C(=O)SCCOP(=O)(OCCSC(=O)C(C)(C)C)O[C@@H]1CCC[C@@H]1n1cnc2c(N)ncnc21 [(1S,2R)-9-(cyclopentyl)-Ade-2′-P-bis(t-Bu-SATE)]
[2]; [13]
  IC50: > 30000 nM

## Nc1ncnc2c1ncn2[C@@H]1O[C@H](CO)[C@@H](OP(=O)(O)OP(=O)(O)OP(=O)(O)O)[C@H]1O [Ado 3′˜PPP]
[1]; [11]
  IC50: 2000 nM

## Nc1ncnc2c1ncn2C1OC(CO)C(OP(=O)(O)OP(=O)(O)O)C1O (centres unmarked) [Ado 3′˜PP]
[1]; [11]
  IC50: 3900 nM

## Nc1ncnc2c1ncn2C1OC(CO)C(OP(=O)(O)O)C1O (centres unmarked) [Ado 3′˜P]
[1]; [11]
  IC50: 8900 nM

## Nc1ncnc2c1ncn2[C@@H]1O[C@H](CO)[C@@H](O)[C@H]1O [Ado]
[1]; [11]
  IC50: 82000 nM

## CC(=O)SCCOP(=O)(OCCSC(C)=O)O[C@H]1C[C@H](n2cnc3c(N)ncnc32)O[C@@H]1C [Compound 1, 2′,5′-dideoxyadenosine-3′-O-bis(S-acetyl-2-thioethyl) phosphate]
[3]
  IC50: 30 nM

## C[C@H]1O[C@@H](n2cnc3c(N)ncnc32)C[C@@H]1OP(=O)(OCCSC(=O)C(C)(C)C)OCCSC(=O)C(C)(C)C [Compound 2, 2,5′-dideoxyadenosine-3′-O-bis(S pivaloyl-2-thioethyl) phosphate]
[4]; at 100 μM
  inhibition of Rat Brain Adenylyl Cyclase at 100 μM: no inhibition
[4]; isolated enzyme
  effect on the activity of adenylyl cyclases per se, enzyme from rat brain: no effect
[5]; at 100 μM
  inhibition of adenylyl cyclase of Ob1771 cell membranes at 100 μM: 20% inhibition
[5]; isolated enzyme
  effect on the activity of adenylyl cyclases per se, enzyme from the preadipocytes: no effect
[2]; [13]
  IC50: 30 nM
[3]
  IC50: 100 nM
[6]; human macrophages, 15 min preincubation, forskolin 15 min
  IC50: 50 nM
[7]
  rate of differentiation: accelerated rates of differentiation
[8]
  IC50: ~82 nM
[9]
  stimulation of contractility caused by phenylephrine: completely blocked
[9]; not shown
  stimulation of contractility caused by forskolin: completely blocked
[10]
  effect on adenylyl cyclase isolated from these tissues: no effect

## C[C@H]1O[C@@H](n2cnc3c(N)ncnc32)C[C@@H]1OP(=O)(OCCSC(=O)c1ccccc1)OCCSC(=O)c1ccccc1 [Compound 3, 2,5′-dideoxyadenosine-3′-O-bis(S-benzoyl-2-thioethyl) phosphate]
[3]
  IC50: 800 nM

## C[C@H]1O[C@@H](n2cnc3c(N)ncnc32)C[C@@H]1OP(=O)(OCCSC(=O)C(C)(C)C)OCCSC(=O)C(C)(C)C [Compound 5, β-L-2′,5′-dideoxyadenosine-3′-O-bis(S-pivaloyl-2-thioethyl)-phosphate]
[3]
  IC50: ~2000 nM

## CC(C)(C)C(=O)SCCOP(=O)(OCCSC(=O)C(C)(C)C)OC[C@@H]1CC[C@H](n2cnc3c(N)ncnc32)O1 [Compound 8, β-L-2′,3′-dideoxyadenosine-5′-O-bis(S-pivaloyl-2-thioethyl)-phosphate]
[2]; [13]
  IC50: > 30000 nM

## CC1OC(n2cnc3c(N)ncnc32)CC1OP1(=O)OCc2ccccc2O1 (centres unmarked) [Compound 10, 2′,5′-dideoxyadenosine-3.0-cyclosaligenyl phosphate]
[4]; [14]
  IC50: 7000 nM
[5]
  IC50: 30000 nM
[2]
  IC50: ~2000 nM
[6]; Homo sapiens, Macrophage
  IC50: ~2000 nM

## Cc1cccc2c1OP(=O)(OC1CC(n3cnc4c(N)ncnc43)OC1C)OC2 (centres unmarked) [Compound 11, 2′,5′-dideoxyadenosine-3′-O-cyclo-3-methyl-saligenyl phosphate]
[4]; [14]
  IC50: 7000 nM
[5]
  IC50: 60000 nM
[2]
  IC50: ~2000 nM

## CC(C)(C)C(=O)SCCOP(=O)(COCCn1cnc2c(N)ncnc21)OCCSC(=O)C(C)(C)C [Compound 13, bis(t-Bu-SATE)-9-(2-phosphonomethoxyethyl)-adenine]
[2]; [13]
  IC50: > 30000 nM

## C[C@H](Cn1cnc2c(N)ncnc21)OCP(=O)(OCCSC(=O)C(C)(C)C)OCCSC(=O)C(C)(C)C [Compound 16, (R)-Bis(S-pivaloyl-2-thioethyl) 9-(2-phosphonylmethoxypropyl)-adenine]
[3]
  IC50: > 30000 nM

## Nc1ncnc2c1ncn2CCOCP(=O)(O)O [PMEA, 9-(phosphonomethoxyethyl)-adenine]
[1]; [11]
  IC50: 65000 nM

## Nc1ncnc2c1ncn2CCOCP(=O)(O)OP(=O)(O)OP(=O)(O)O [PMEApp]
[1]; [12]
  IC50: 170 nM

## Nc1ncnc2c1ncn2[C@@H]1CCC[C@@H]1OP(=O)(O)OP(=O)(O)OP(=O)(O)O [reference compound]
[4]; [15]
  IC50: 450 nM

## Nc1ncnc2c1ncn2[C@H]1CCC[C@H]1OP(=O)(O)OP(=O)(O)OP(=O)(O)O [reference compound]
[4]; [15]
  IC50: 9860 nM

## Nc1ncnc2c1ncn2[C@@H]1CC[C@H](COP(=O)(O)O)O1 [β-L-2′,3′-dd-5′-AMP]
[1]; [11]
  IC50: 62000 nM

## Nc1ncnc2c1ncn2C1CCC(COP(=O)(O)OP(=O)(O)OP(=O)(O)O)O1 [β-L-2′,3′-dd-5′-ATP]
[1]; [12]
  IC50: 24 nM

## Nc1ncnc2c1ncn2[C@H]1O[C@@H](COP(=O)(O)O)[C@H](O)[C@@H]1O [β-L-5′-AMP]
[1]; [11]
  IC50: 200000 nM
